Test results reported in patent EP0868915A1, “An anti-spasmodic and antiinflammatory composition containing a NSAID, pentifenone and fenpiverinium” (PANACEA BIOTEC LIMITED, priority 1997, dated 1998).
Structures can show the parent of a compound that is named as a salt. Where two headings read alike, the source gives them in different places.

Tested on: distal portion of colon of rat
Assay: Inhibition of acetylcholine-induced contraction of isolated rat colon (antispasmodic activity)
Details: for inhibition at 0.01 µg/mL: Pitofenone Hcl dose 10 ng/ml; for inhibition at 0.02 µg/mL: Pitofenone Hcl dose 20 ng/ml; for inhibition at 0.04 µg/mL: Pitofenone Hcl dose 40 ng/ml; for inhibition at 0.08 µg/mL: Pitofenone Hcl dose 80 ng/ml; for Percentage inhibition of Ach (100 ng/ml) -Induced contraction After Diclofenac Na: in presence of Diclofenac Sodium 20µ/ml
Method: In order to see the effect of NSAID on the Antispasmodic activity of Pitifenone hydrochloride and Fenpiverinium bromide an experiment was conducted on standard isolated tissues of experimental animal. The tissue chosen for the experiment was the distal portion of colon of rat. The NSAID selected for the experiment was Diclofenac Sodium.
The percentage inhibition of Acetylcholine - induced contraction (at dosage level of 100ng/m) was studied with varied concentration of Pitofenone Hydrochloride in the dose range of 10-80 nano gm/ml.
The percentage inhibition of Acetylcholine -induced contraction (at dosage level of 100ng/ml) was studied with varied concentration of Fenpiverinium bromide in the dose range of 0.5-2 ng/ml.
The experiment was then conducted at the same dose level of Acetylcholine and Fenpiverinium bromide but in the presence of Diclofenac Sodium (dose level 20µ gm/ml). The data obtained in the experiment is collected in Table -2.

[1] = in presence of Diclofenac Sodium 20 µg/ml, read-out: Percentage inhibition of Ach (100 ng/ml) -induced contraction After Diclofenac Na
[2] = read-out: Percentage inhibition of Ach (100 ng/ml) -induced contraction Before Diclofenac Na
[3] = Fenpiverinium Bromide dose 0.5 (ng/ml)
[4] = Fenpiverinium Bromide dose 1.0 (ng/ml)
[5] = Fenpiverinium Bromide dose 2.0 (ng/ml)

O=C(O)Cc1ccccc1Nc1c(Cl)cccc1Cl [Diclofenac, Diclofenac Sodium] was tested, and the “action with Fenpiverinium bromide as an Antispasmodic” value (Diclofenac Sodium 20 µg/ml) was “synergistic (potentiating) action” and the “action with Pitofenone Hydrochloride as an Antispasmodic” value (Diclofenac Sodium 20 µg/ml) was “synergistic (potentiating) action”.
COC(=O)c1ccccc1C(=O)c1ccc(OCCN2CCCCC2)cc1 [Pitofenone Hcl, Pitofenone Hydrochloride] gave an inhibition at 0.01 µg/mL [1] of 100%, an inhibition at 0.01 µg/mL [2] of 0% and an inhibition at 0.02 µg/mL [1] of 100%. The inhibition at 0.02 µg/mL [2] was 0%, the inhibition at 0.04 µg/mL [1] was 100% and the inhibition at 0.04 µg/mL [2] was 0%. It also gave an inhibition at 0.08 µg/mL [1] of 100% and an inhibition at 0.08 µg/mL [2] of 20.2%.
C[N+]1(CCC(C(N)=O)(c2ccccc2)c2ccccc2)CCCCC1 [Fenpiverinium Bromide, Fenpiverinium bromide] was tested, and the “Percentage inhibition of Ach (100 ng/ml) -Induced contraction Before Diclofenac Na” value [3] was 43.8%, the “Percentage inhibition of Ach (100 ng/ml) -Induced contraction After Diclofenac Na” value [3] was 100% and the “Percentage inhibition of Ach (100 ng/ml) -Induced contraction Before Diclofenac Na” value [4] was 78.7%. For the same compound, the “Percentage inhibition of Ach (100 ng/ml) -Induced contraction After Diclofenac Na” value [4] was 100%, the “Percentage inhibition of Ach (100 ng/ml) -Induced contraction Before Diclofenac Na” value [5] was 100% and the “Percentage inhibition of Ach (100 ng/ml) -Induced contraction After Diclofenac Na” value [5] was 100%.
